Laboratory results from patent publication US10550103B2, “Dual inhibitors of PARP1 and CDK” (Accutar Biotechnology, priority 2017, dated 2020).
Like-named read-outs stand apart in the source and are kept apart here.

What was measured:
[1] = system: HCC1395 cells; assay: BRAC1 mutant triple negative breast cancer cell growth inhibition assay (Cell Titer Glo), HCC1395; format: cell-based
Experimental: (§1) HCC1937 cells and HCC1395 cells are both […], triple negative (ER, PR, HER2) breast cancer cell lines. The cells were maintained in RPMI1640 medium (Gibco A10491-01) supplemented with 10% FBS, and 1× Penicillin Streptomycin. The HCC1937 cells (ATCC® CRL-2336™) and HCC1395 cells (ATCC® CRL-2324™), respectively, were plated in 96 dark well plates at 0.4×10^4 cells/well.
(§2) Cell medium was replaced each day for 4 days.
(§3) To determine cell viability, the relative cell number was determined by the Cell Titer Glo reagent (Promega) according to the protocol. At each day of the assay, the 96 well plate and reagents were equilibrated at RT for 30 min. 100 μl of Cell Titer Glo reagent was added to each well. The contents of each well were mixed using a pipetter to induce cell lysis. The plate was allowed to incubate at RT for 30 min to stabilize the luminescent signal, and the luminescence was determined by a luminometer (Perkin Elmer EnSpire).

[2] = system: MDA-MB-231 cells; assay: MDA-MB-231 breast cancer cell viability assay; format: cell-based, human; settings: increasing concentrations; FIG. 15B
Experimental: (§4) MCF7 is a breast cancer cell line isolated from a person. MDA-MB-231 is a cell line is an epithelial, human breast cancer cell line that was established from a pleural effusion of a person with a metastatic mammary adenocarcinomal. Cell assays were performed using increasing concentrations of C3 and cell viability was measured. Olaparib and palbocicilib were also used in the cell assays to compare the efficacy of C3 in decreasing cell viability of these breast cancer lines.

[3] = system: MCF7 cells; assay: MCF7 cell proliferation assay; format: cell-based, human; settings: days 1-4; FIG. 6, 7
Experimental: A cell proliferation assay was performed with MCF7 cells, which is a human breast cancer adenocarcima cell line which expresses PARP1, to compare the inhibitor effect of C2 (Abemaciclib), C2 in combination with letrozole (1 μM), C3, and C3 in combination with letrozole (1 μM). Cell proliferation results at increasing concentrations of C2 and C3 were measured at day 1 (FIG. 6A), day 2 (FIG. 6B), day 3 (FIG. 6C), and day 4 (FIG. 6D).

[4] = system: HCC1937 cells; assay: BRAC1 mutant triple negative breast cancer cell growth inhibition assay (Cell Titer Glo), HCC1937; format: cell-based
Experimental: as §1, §2, §3

[5] = system: MCF/E2 xenograft tumor; assay: MCF/E2 xenograft tumor mouse model, tumor volume; format: in vivo; settings: 50 mg/kg P.O. QD for 2 weeks; FIG. 14A
Experimental: (§5) A MCF/E2 xenograft tumor mouse model was used to evaluate the efficacy of C3 in the treatment of breast cancer. 50 mg/kg of C3 was administered, P.O., once daily (QD) for 2 weeks. Data was compared to a vehicle control.

[6] = system: MCF7 cells; assay: MCF7 breast cancer cell viability assay; format: cell-based, human; settings: FIG. 15A
Experimental: as §4

[7] = Pharmacokinetics in female BALB/c mice; format: in vivo; settings: plasma; for MRT last: read-out: MRT(0-t)
Experimental: Pharmacokinetic parameters of the of C3 were measured after a single intraperitoneal injection (IP) of 10 mg/kg, or oral administration (PO) of 50 mg/kg in female BALB/c mice. Pharmacokinetic parameters measured include: elimination half-life (t1/2), time to reach maximum blood plasma concentration (Tmax); maximum blood plasma concentration (Cmax); area under the blood plasma concentration-time curve from time zero to the last detectable plasma concentration (AUC(0-t)); area under the blood plasma concentration-time curve from time zero to infinity (AUC(0-∞)); the mean residence time of the drug in the body from time zero to the last detectable plasma concentration (MRT(0-t)); apparent volume of distribution during terminal phase (Vz); and apparent total body clearance of the drug from plasma (CL).

[8] = MCF/E2 xenograft tumor mouse model, body weight; format: in vivo; settings: 50 mg/kg P.O. QD for 2 weeks; FIG. 14B
Experimental: as §5

[9] = target: T1, PARP1 (Homo sapiens, UniProt P09874); assay: PARP inhibition assay (TREVIGEN kit, NAD fluorescence); format: biochemical; settings: final PARP concentration 40 nM; inhibition curves FIG. 2A-2D
T1 construct: purchased TREVIGEN 4690-096-K
Experimental: The PARP inhibition assay was performed using a commercially available PARP inhibition assay kit (TREVIGEN, 4690-096-K).
A 1× buffer was prepared by diluting 10× buffer with dH2O.
The nicotinamide adenine dinucleotide (NAD) standards were prepared by diluting the NAD stock solution with the 1× buffer as provided in Table 2 below.
PARP1 inhibitors were prepared in 1× buffer at 50× final concentration. 1 μl of PARP inhibitors were added to the 96 well plate.
PARPminus (×20) and PARPplus (×40) solutions were prepared as provided below in Table 3.
The cycling mix(60×) was prepared as provided below in Table 4.
In the black 96 well plate provided with the kit, 25 μl of 1× buffer was added to wells A5 and A6. To wells B5 to G6, 25 μl of 2×NAD standards were added. To wells H1, H2, A7 to G12, 25 μl NAD2 μM were added. To wells A5 to H6, 1 μl DMSO were added.
The following stock solutions of olaparib and C3 were separately prepared: 500 nM, 2.5 μM, 5 μM, 25 μM, 50 μM, 0.5 mM, and 1 mM. […]
The 96 well plate was read with a fluorescent plate reader (544 nm excitation/590 nm emission filters). […]
The standards indicate that higher concentrations of NAD correspond to higher fluorescence. Because PARP1 consumes NAD, PARP1 inhibition was determined by fluorescence intensity.
Inhibition curves were prepared based on the fluorescence data. […]

[10] = system: MB231 cells; assay: MB231 cell proliferation assay; format: cell-based, human; settings: days 1-4; FIG. 8, 9
Experimental: A cell proliferation assay was performed with MB231 cells, which is a human breast cancer adenocarcinoma cell line expressing a mutant CDKN2A, treated with C3 or olaparib. Cell proliferation results at increasing concentrations of C3 and olaparib were measured at day 1 (FIG. 8A), day 2 (FIG. 8B), day 3 (FIG. 8C), and day 4 (FIG. 8D).

[11] = system: more than 480 kinase assays (403 non-mutant kinases); assay: Kinase selectivity, DiscoverX KINOMEscan competition binding
Experimental: A kinase selectivity assay was performed with C3 using DiscoverX KINOMEscan™ (www.discoverx.com/, which is herein incorporated by reference in its entirety for all purposes). The KINOMEscan platform employs active site-directed competition binding assay to quantitatively measure interactions between test compounds (e.g., C3) and more than 480 kinase assays including clinically relevant mutants, lipid, atypical, and pathogen kinases, plus a growing panel of activation-state specific assays.
The data was interpreted using three selectivity score types (e.g., S(35); S(10); and S(1)) in order to provide a broad kinase selectivity picture (e.g., a selectivity score) of C3. The selectivity score was calculated using % Ctrl as a potency threshold (below) and provides a quantitative method of describing compound selectivity to facilitate comparison of different compounds. The three selectivity score types used to interpret the data are summarized below: S=Number of hits/Number of assays S(35)=(number of non-mutant kinases with % Ctrl<35)/(number of non-mutant kinases tested) S(10)=(number of non-mutant kinases with % Ctrl<10)/(number of non-mutant kinases tested) S(1)=(number of non-mutant kinases with % Ctrl<1)/(number of non-mutant kinases tested)

[12] = % Ctrl<1, 403 non-mutant kinases, screening concentration 1000 nM
[13] = % Ctrl<10, 403 non-mutant kinases, screening concentration 1000 nM
[14] = % Ctrl<35, 403 non-mutant kinases, screening concentration 1000 nM

T1 sequence (P09874 whole entry): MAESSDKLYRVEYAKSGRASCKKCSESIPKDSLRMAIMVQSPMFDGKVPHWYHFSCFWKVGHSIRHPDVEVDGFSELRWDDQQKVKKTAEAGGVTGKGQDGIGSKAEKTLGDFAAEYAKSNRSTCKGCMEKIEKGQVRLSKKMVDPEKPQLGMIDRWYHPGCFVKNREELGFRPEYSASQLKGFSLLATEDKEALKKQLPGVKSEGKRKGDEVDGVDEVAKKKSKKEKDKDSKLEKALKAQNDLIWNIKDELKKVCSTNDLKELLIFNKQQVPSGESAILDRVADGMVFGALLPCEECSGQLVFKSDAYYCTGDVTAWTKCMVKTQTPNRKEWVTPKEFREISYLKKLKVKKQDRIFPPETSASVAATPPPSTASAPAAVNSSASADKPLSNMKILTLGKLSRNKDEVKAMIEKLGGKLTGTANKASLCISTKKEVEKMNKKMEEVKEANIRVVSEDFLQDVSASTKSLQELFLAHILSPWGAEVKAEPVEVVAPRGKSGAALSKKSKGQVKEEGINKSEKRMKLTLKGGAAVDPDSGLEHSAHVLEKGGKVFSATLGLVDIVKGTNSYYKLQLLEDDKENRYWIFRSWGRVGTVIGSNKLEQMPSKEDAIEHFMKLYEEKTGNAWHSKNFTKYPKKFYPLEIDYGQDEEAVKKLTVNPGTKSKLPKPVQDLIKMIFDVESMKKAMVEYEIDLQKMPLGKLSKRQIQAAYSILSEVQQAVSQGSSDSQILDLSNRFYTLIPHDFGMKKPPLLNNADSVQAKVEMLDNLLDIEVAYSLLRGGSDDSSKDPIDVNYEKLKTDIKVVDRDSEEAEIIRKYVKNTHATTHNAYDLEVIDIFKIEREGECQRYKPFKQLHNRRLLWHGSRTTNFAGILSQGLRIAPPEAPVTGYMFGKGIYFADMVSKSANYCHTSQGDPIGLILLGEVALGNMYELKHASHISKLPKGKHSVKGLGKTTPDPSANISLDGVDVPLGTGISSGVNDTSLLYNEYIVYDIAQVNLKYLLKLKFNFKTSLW

## Cc1nc2c(F)cc(-c3nc(Nc4ccc(N5CCN(C(=O)c6cc(Cc7n[nH]c(=O)c8ccccc78)ccc6F)CC5)cn4)ncc3F)cc2n1C(C)C [Compound C3]
[1]; 10 μM, day 4, FIG. 10D
  viable HCC1395 cells: almost no HCC1395 cells were viable
[2]
  reduction of MDA-MB-231 cell viability (comparison in words): more effective in reducing cell viability of MDA-NIB-231 cell than olaparib and palbocicilib
[3]
  inhibition of MCF7 cell proliferation: inhibitor of cell proliferation
[4]; 10 μM, day 4, FIG. 11D
  viable HCC1937 cells: almost no HCC1937 cells were viable
[5]
  change in tumor volume versus vehicle control: able to limit tumor growth compared to the vehicle control
[6]; increasing concentrations
  reduction of MCF7 cell viability (comparison in words): reduced cell viability of MCF7 cells at lower concentrations compared to both olaparib and palbocicilib
[7]; mouse, PO 50 mg/kg
  AUC(0-t): 1700 ng·h/mL
  Cmax: 292 ng/mL
  Tmax: 4 h
  MRT last: 3.62 h
[7]; mouse, single IP 10 mg/kg
  AUC(0-inf): 2670 ng·h/mL
  AUC(0-t): 2520 ng·h/mL
  Cmax: 284 ng/mL
  Tmax: 0.25 h
  half-life: 5.7 h
  MRT last: 6.3 h
[7]; single IP 10 mg/kg
  CL: 62.3432 mL/min/kg
  Vz: 30.75832 L/kg
[8]
  change in body weight versus vehicle control: does not causes changes in body weight
[9]
  PARP1 inhibition (comparison in words): superior to C2 (Abemaciclib) and similar to olaparib
[10]
  inhibition of MB231 cell proliferation: stronger inhibitor of cell proliferation of MB231 human breast cancer adenocarcinoma cells than olaparib
[11]; [12]
  Number of Hits, S(1): 11
  Selectivity Score S(1): 0.027
[11]; [13]
  Number of Hits, S(10): 50
  Selectivity Score S(10): 0.124
[11]; [14]
  Number of Hits, S(35): 86
  Selectivity Score S(35): 0.213
[11]; KINOMEscan, 1000 nM
  kinase selectivity (in words): relatively selective kinase, with similar kinase selectivity as Abemaciclib

## O=C(c1cc(Cc2n[nH]c(=O)c3ccccc23)ccc1F)N1CCN(C(=O)C2CC2)CC1 [olaparib, reference compound]
[1]; Homo sapiens, HCC1395, 96 h, day 4, FIG. 10D, read-out: viable HCC1395 cells
  viability at 10 µM: ~60%
[4]; Homo sapiens, HCC1937, 96 h, day 4, FIG. 11D, read-out: viable HCC1937 cells
  viability at 10 µM: > 80%
[6]
  concentration at which MCF7 cell viability was reduced to 0: did not reduce cell viability to 0% at the concentrations tested
